Literature values in patent US9579356B2, “Dietary supplements for reducing cholesterol levels” (RELIV INTERNATIONAL INC., priority 2006, dated 2017).

Key:
[1] = system: individuals having total cholesterol levels ranging from 210 to 326 mg/dL; conditions: 3.5 g daily, after two weeks
[2] = system: individuals having initial total cholesterol levels exceeding 260 mg/dL; conditions: 15 grams daily, three weeks
[3] = system: rats which were fed a high cholesterol diet
[4] = system: human neutrophils
[5] = system: rats; conditions: dietary supplementation
[6] = system: patients with LDL-cholesterol levels exceeding 160 mg/dl; conditions: after eight weeks; policosanol 10 mg/day, lovastatin 20 mg/day, simvastatin 10 mg/day

## beta-glucan
[1]
  reduction in total cholesterol: 5.4%
[2]
  reduced LDL cholesterol: about 23%
  reduced total cholesterol: about 19%

## Oc1ccc(C=Cc2cc(O)cc(O)c2)cc1 [Resveratrol]
[3]
  cholesterol and triglyceride liver deposition: inhibited
  low-density lipoprotein (LDL) cholesterol levels: lowered
  ratio of total cholesterol to high-density lipoprotein (HDL) cholesterol: reduced
  serum triglyceride levels: lowered
[4]
  leukotriene production: induce

## O=C(O)[C@@H](O)[C@@H](O)[C@H](O)[C@@H](O)C(=O)[O-].[K+] [potassium hydrogen D-glucarate]
[5]
  lowering VLDL cholesterol: effective
  lowering total triglycerides: effective

## O=C([O-])[C@@H](O)[C@@H](O)[C@H](O)[C@@H](O)C(=O)[O-].[Ca+2] [calcium D-glucarate]
[5]
  lowering VLDL cholesterol: did not demonstrate similar effects
  lowering total triglycerides: did not demonstrate similar effects

## CC[C@H](C)C(=O)O[C@H]1C[C@@H](C)C=C2C=C[C@H](C)[C@H](CC[C@@H]3C[C@@H](O)CC(=O)O3)[C@H]21 [lovastatin]
[6]
  reduced LDL-cholesterol levels: about 22%
